Test results: US7569563B2, “Substituted quinolones II” (AiCuris GmbH & Co. HK, priority 2005, dated 2009)
Where a name gives a salt, the structure may show the parent alone.

Tests used:
HCMV = test: Anti-HCMV (anti-human cytomegalovirus) cytopathogenicity test; type: cell-based; details: for EC50: Human betaherpesvirus 5, 144 h, concentration inhibiting CPE by 50% vs untreated virus control, HCMV-infected NHDF cells, M.O.I. 0.001-0.002, 6 days; for SI HCMV (selectivity index): SI = CC50 (NHDF)/EC50 (HCMV)
Protocol: Anti-HCMV (Anti-Human Cytomegalovirus) Cytopathogenicity Tests The test compounds are employed as 50 millimolar (mM) solutions in dimethyl sulfoxide (DMSO). Ganciclovir®, Foscamet® and Cidofovir® are used as reference compounds. After the addition of in each case 2 μl of the 50, 5, 0.5 and 0.05 mM DMSO stock solutions to 98 μl portions of cell culture medium in row […] for duplicate determinations, 1:2 dilutions are carried out with 50 μl portions of medium up to row 1 l of the 96-well plate. The wells in rows 1 and 12 each contain 50 μl of medium. 150 μl of a suspension of 1×10^4 cells (human prepuce fibroblasts [NHDF]) are then pipetted into each of the wells (row I=cell control) and, in rows 2-12, a mixture of HCMV-infected and uninfected NHDF cells (M.O.I.=0.001-0.002), i.e. 1-2 infected cells per 1000 uninfected cells. Row 12 (without substance) serves as virus control. The final test concentrations are 250-0.0005 μM. The plates are incubated at 37° C./5% CO2 for 6 days, i.e. until all the cells are infected in the virus controls (100% cytopathogenic effect [CPE]). The wells are then fixed and stained by the addition of a mixture of formalin and Giemsa's dye (30 minutes), washed with double-distilled water and dried in a drying oven at 50° C. The plates are then assessed visually using an overhead microscope (plaque multiplier from Technomara). The following data can be acquired from the test plates: EC50 (HCMV)=substance concentration in μM which inhibits the CPE (cytopathic effect) by 50% compared with the untreated virus control; SI (selectivity index)=CC50 (NHDF)/EC50 (HCMV).

[1] = Cytostatic effects on NHDF cells in the anti-HCMV cytopathogenicity test; type: cell-based; details: human, human prepuce fibroblasts (NHDF cells); substance concentration at which no visible cytostatic effects on NHDF cells are evident vs untreated cell control; 6 days incubation
Protocol: Anti-HCMV (Anti-Human Cytomegalovirus) Cytopathogenicity Tests The test compounds are employed as 50 millimolar (mM) solutions in dimethyl sulfoxide (DMSO). Ganciclovir®, Foscamet® and Cidofovir® are used as reference compounds. After the addition of in each case 2 μl of the 50, 5, 0.5 and 0.05 mM DMSO stock solutions to 98 μl portions of cell culture medium in row […] for duplicate determinations, 1:2 dilutions are carried out with 50 μl portions of medium up to row 1 l of the 96-well plate. The wells in rows 1 and 12 each contain 50 μl of medium. 150 μl of a suspension of 1×10^4 cells (human prepuce fibroblasts [NHDF]) are then pipetted into each of the wells (row I=cell control) and, in rows 2-12, a mixture of HCMV-infected and uninfected NHDF cells (M.O.I.=0.001-0.002), i.e. 1-2 infected cells per 1000 uninfected cells. Row 12 (without substance) serves as virus control. The final test concentrations are 250-0.0005 μM. The plates are incubated at 37° C./5% CO2 for 6 days, i.e. until all the cells are infected in the virus controls (100% cytopathogenic effect [CPE]). The wells are then fixed and stained by the addition of a mixture of formalin and Giemsa's dye (30 minutes), washed with double-distilled water and dried in a drying oven at 50° C. The plates are then assessed visually using an overhead microscope (plaque multiplier from Technomara). The following data can be acquired from the test plates: CC50 (NHDF)=substance concentration in μM at which no visible cytostatic effects on the cells are evident compared with the untreated cell control;

CCOC(=O)CN1[C@H](C)CN(c2c(F)cc3c(=O)c(C(=O)NCc4ccc(Cl)cc4Cl)cn(CC(F)(F)F)c3c2OC)C[C@@H]1C [Example 1, Ethyl{(2RS,6SR)-4-[3-{[(2,4-dichlorobenzyl)amino]carbonyl}-6-fluoro-8-methoxy-4-oxo-1-(2,2,2-trifluoroethyl)-1,4-dihydroquinolin-7-yl]-2,6-dimethylpiperazin-1-yl}ethanoate hydroformate]
EC50 (HCMV): 0.019 µM
SI HCMV (selectivity index) (HCMV): 579
CC50 at 6 days [1]: 11 µM

COc1c(N2C[C@@H](C)N(CC(=O)O)[C@@H](C)C2)c(F)cc2c(=O)c(C(=O)NCc3ccc(Cl)cc3Cl)cn(CC(F)(F)F)c12 [Example 28, {(2RS,6SR)-4-[3-{[(2,4-Dichlorobenzyl)amino]carbonyl}-6-fluoro-8-methoxy-4-oxo-1-(2,2,2-trifluoroethyl)-1,4-dihydroquinolin-7-yl]-2,6-dimethylpiperazin-1-yl}ethanoic acid hydroformate]
EC50 (HCMV): 0.0023 µM
SI HCMV (selectivity index) (HCMV): 8032
CC50 at 6 days [1]: 18 µM

COc1c(N2C[C@@H](C)N(CC(=O)O)[C@@H](C)C2)c(F)cc2c(=O)c(C(=O)NCc3ccc(Cl)cc3Cl)cn(C3CC3)c12 [Example 29, 4-[3-{1-Cyclopropyl-[(2,4-dichlorobenzyl)amino]carbonyl}-1-fluoro-8-methoxy-4-oxo-1,4-dihydroquinolin-7-yl]-(2RS,6SR)-2,6-dimethylpiperazin-1-yl}ethanoic acid hydrochloride]
EC50 (HCMV): 0.01 µM
SI HCMV (selectivity index) (HCMV): 4700
CC50 at 6 days [1]: 47 µM

COc1c(N2C[C@@H](C)N(CC(=O)O)[C@@H](C)C2)c(F)cc2c(=O)c(C(=O)NCc3ccc(Cl)cc3Cl)cn(CCF)c12 [Example 30]
EC50 (HCMV): 0.008 µM
SI HCMV (selectivity index) (HCMV): 5875
CC50 at 6 days [1]: 47 µM

COc1c(N2C[C@@H](C)N(CC(=O)O)[C@@H](C)C2)c(F)cc2c(=O)c(C(=O)NCc3ccc(Cl)cc3C)cn([C@H]3C[C@H]3F)c12 [Example 36]
EC50 (HCMV): 0.005 µM
SI HCMV (selectivity index) (HCMV): 6402
CC50 at 6 days [1]: 24 µM

COc1c(N2C[C@@H](C)N(C(C)C(=O)O)[C@@H](C)C2)c(F)cc2c(=O)c(C(=O)NCc3ccc(Cl)cc3Cl)cn(C3CC3)c12 (stereo partly drawn) [Example 49]
EC50 (HCMV): 0.018 µM
SI HCMV (selectivity index) (HCMV): 5222
CC50 at 6 days [1]: 94 µM
